# Measurements from PubChem BioAssay (NCI).
#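 Abbreviation: GI50, concentration required for 50% inhibition of growth. Definition used: TGI = concentration required for complete inhibition of growth.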
# Tests used:
# Test in all cases: NCI-60 cell line screen, 384-well format
# [1] = system: SNB-19 CNS
# [2] = system: UO-31 renal
# [3] = system: MCF7 breast
# [4] = system: NCI-H522 lung
# [5] = system: SF-268 CNS
# [6] = system: SW-620 colon
# [7] = system: IGROV1 ovarian
# [8] = system: SR leukemia
# [9] = system: T-47D breast
# [10] = system: NCI-H226 lung
# [11] = system: MALME-3M melanoma
# [12] = system: RPMI-8226 leukemia
# [13] = system: HL-60(TB) leukemia
structure (smiles),measurement,setting,value
COc1nn(C)cc1Nc1nccc(-c2c[nH]c3c(NC(=O)[C@@H](C)N4CCN(C)CC4)cccc23)n1,GI50,[1],41.2 µM
same,TGI,[1],> 100 µM
same,GI50,[2],17.3 µM
same,TGI,[2],32.5 µM
same,GI50,[3],18 µM
same,TGI,[3],> 71.9 µM
same,GI50,[4],10.2 µM
same,TGI,[4],26.5 µM
same,GI50,[5],18.4 µM
same,TGI,[5],37 µM
same,GI50,[6],21 µM
same,TGI,[6],40.3 µM
same,GI50,[7],18.8 µM
same,TGI,[7],52.4 µM
same,GI50,[8],9.69 µM
same,TGI,[8],21.5 µM
same,GI50,[9],29 µM
same,TGI,[9],> 89.4 µM
same,GI50,[10],9.15 µM
same,TGI,[10],31.6 µM
same,GI50,[11],14.9 µM
same,TGI,[11],29.2 µM
same,GI50,[12],11.2 µM
same,TGI,[12],26.6 µM
same,GI50,[13],11.8 µM
same,TGI,[13],24.1 µM
